Data set [1] can be described thus: Compound stability in human plasma. It counts as in vitro ADME. Here is the method: Compounds were assayed for stability in human plasma under the following conditions. Human plasma was obtained from Bioreclamation (Westbury, N.Y.) and collected in sodium heparin. Plasma was adjusted to pH 7.4. DMSO stocks at 10 mM concentration were prepared for the test compounds. Aliquots of the DMSO solutions were dosed into 1 mL of plasma, which had been pre-warmed to 37° C., at a final test compound concentration of 10 μM. The vials were kept in a benchtop THERMOMIXER® (Eppendorf, Hauppauge, N.Y.) for the duration of the experiment. Aliquots (100 μL) were taken at each timepoint and added to a 96-well plate that had been pre-filled with 300 μL of an acetonitrile solution containing mixture of the internal standards (metoprolol, propranolol and warfarin each at 500 ng/mL). […] Aliquots of the supernatant were removed and analyzed by LC-HRAMS.

Data set [2] addresses T1, C5 (Homo sapiens, UniProt P01031). The experiment in a line: Competitive fluorescence polarization assay with probe R3076. More on the design: purchased Complement Technology, Tyler, Tex. It counts as binding. As to the method: FP allows binding events to be measured in a homogenous solution.
Polarization was measured over time, until binding reached equilibrium. KD was determined using Graphpad Prism (using “Saturating Binding Curves, One Site—Specific Binding With Hill Slope” as the curve fit to determine KD).
10 μl of this working stock was then added to each well in the assay plate. The assay plate was incubated at room temperature, protected from light, for 20 minutes to allow binding to reach equilibrium.
Test articles listed in Table 7 were subsequently diluted in DMSO then assay buffer, comprising 10 2-fold dilutions and were then added to the assay plate in triplicate, rapidly. The assay plate was then incubated in the Paradigm (Molecular Devices, Sunnyvale, Calif.) plate reader for 60 minutes at 25° C.
After incubation for 60 minutes, the plate was read using the Paradigm FP protocol (Molecular Devices, Sunnyvale, Calif.) and raw polarization values were imported into Graphpad Prism.

The target of data set [3] is T1, C5. The data set is described as follows: Human hemolysis assay (RBC lysis assay using complete human sera). It counts as cell-based. The arrangement: with complete human sera (Complement Technology, Tyler Tex.) and polypeptides; tissue Complement Technology, Tyler Tex; host or cells: complete human serum. Particulars: inhibition of lysis of antibody-sensitized sheep erythrocytes, complete human sera.

In data set [4] the target is T1, C5. The experiment in a line: Fluorescence polarization saturation binding of probe R3076 to C5. More on the design: purchased Complement Technology, Tyler, Tex. Conditions: read-out: equilibrium dissociation constant (KD). As to the method:
FP was used for screening competitive polypeptide inhibitors of the C5 protein. […] The BODIPY-TMR dye attached to the C-terminal lysine of the protein and the subsequent labeled probe was purified by HPLC.
Polarization was measured over time, until binding reached equilibrium. KD was determined using Graphpad Prism (using “Saturating Binding Curves, One Site—Specific Binding With Hill Slope” as the curve fit to determine KD). […] Based on this information, 25 nM and 50 nM concentrations for R3076 (SEQ ID NO: 40) and C5 protein, respectively, were chosen for use in the competition assay. These concentrations represented the approximate level of protein necessary for 95% probe binding to C5 protein.

In data set [5] the target is T1, C5. The experiment in a line: Alternative human hemolysis assay using C5 depleted sera and purified human C5. In kind it is cell-based. Conditions: antibody-sensitized sheep erythrocytes, 1.5% human C5 depleted sera and 0.5 nM purified human C5. More on the design: purchased Complement Technology, Tyler, Tex.
The test system of data set [6] is membrane attack complex (MAC). The data set is described as follows: Membrane attack complex (MAC) EIA on supernatant from human RBC hemolysis assay. It counts as biochemical. Particulars: hemolysis assay supernatant diluted 1:5; read-out: IC50, inhibition of formation of the MAC. As to the method:
Supernatant from the hemolysis assay was diluted 1:5 and assayed for MAC levels.
C5 inhibitory activity was assessed by enzyme immunoassay (EIA). Inhibition of the production of C5a and the membrane attack complex (MAC) were measured by MicroVue EIA kits (Quidel Corporation, San Diego, Calif.).

The subject of the next data set is C5a. The data set is described as follows: C5a EIA on supernatant from human RBC hemolysis assay. In kind it is biochemical. Conditions: hemolysis assay supernatant diluted 1:50; read-out: IC50, inhibition of formation of C5a. As to the method:
Levels of C5a correlate with complement activity and are therefore an indicator of the ability of the compounds tested to inhibit complement activity. Supernatant from the hemolysis assay was diluted 1:50 and assayed for C5a levels. […] As used herein, the term “IC50” refers to the half maximal inhibitory concentration, a value used to indicate the amount of the inhibitor needed to reduce a given reaction or process by half.
Inhibition of the production of C5a and the membrane attack complex (MAC) were measured by MicroVue EIA kits (Quidel Corporation, San Diego, Calif.).

In a further data set the target is T2, rat C5 (Rattus norvegicus, UniProt P08650).
T2 construct: from tissue; host or cells: plasma of dosed male rats
The experiment in a line: Ex vivo hemolysis assays in the rat study.

A word on the half-life: it is the time in which the quantity being followed falls by half. Read a high half-life as slow loss. As a reminder, the IC50 is the concentration at which inhibition is half-maximal. Usually Ki stands for a measure of affinity in units of concentration, obtained from inhibition or displacement. Usually Kd stands for the free concentration of one partner at which half of the binding sites on the other are occupied at equilibrium, for simple one-to-one binding.

The structures appear in SMILES notation. Read-outs that look alike come from different tables or passages of the source. Starred links: 1 amine or outer side, 2 acyl side, 3 side chain; linkers in the order of their positions; H or OH if unused. Positions of bridges follow the written chain, without caps; N, C: chain ends. Non-standard residues stand in square brackets, D forms with d. Residues, ends and D or L forms follow the SMILES beside them. Trp(7-aza) = N[C@@H](Cc1c[nH]c2ncccc12)C(=O)O; mXylylene = c1cc(C[*:1])cc(C[*:2])c1; pXylylene = c1cc(C[*:2])ccc1C[*:1]; Phg = N[C@H](C(=O)O)c1ccccc1; NMeS = CN[C@@H](CO)C(=O)O; Nva = CCC[C@H](N)C(=O)O

T1 sequence (P01031 19-1676): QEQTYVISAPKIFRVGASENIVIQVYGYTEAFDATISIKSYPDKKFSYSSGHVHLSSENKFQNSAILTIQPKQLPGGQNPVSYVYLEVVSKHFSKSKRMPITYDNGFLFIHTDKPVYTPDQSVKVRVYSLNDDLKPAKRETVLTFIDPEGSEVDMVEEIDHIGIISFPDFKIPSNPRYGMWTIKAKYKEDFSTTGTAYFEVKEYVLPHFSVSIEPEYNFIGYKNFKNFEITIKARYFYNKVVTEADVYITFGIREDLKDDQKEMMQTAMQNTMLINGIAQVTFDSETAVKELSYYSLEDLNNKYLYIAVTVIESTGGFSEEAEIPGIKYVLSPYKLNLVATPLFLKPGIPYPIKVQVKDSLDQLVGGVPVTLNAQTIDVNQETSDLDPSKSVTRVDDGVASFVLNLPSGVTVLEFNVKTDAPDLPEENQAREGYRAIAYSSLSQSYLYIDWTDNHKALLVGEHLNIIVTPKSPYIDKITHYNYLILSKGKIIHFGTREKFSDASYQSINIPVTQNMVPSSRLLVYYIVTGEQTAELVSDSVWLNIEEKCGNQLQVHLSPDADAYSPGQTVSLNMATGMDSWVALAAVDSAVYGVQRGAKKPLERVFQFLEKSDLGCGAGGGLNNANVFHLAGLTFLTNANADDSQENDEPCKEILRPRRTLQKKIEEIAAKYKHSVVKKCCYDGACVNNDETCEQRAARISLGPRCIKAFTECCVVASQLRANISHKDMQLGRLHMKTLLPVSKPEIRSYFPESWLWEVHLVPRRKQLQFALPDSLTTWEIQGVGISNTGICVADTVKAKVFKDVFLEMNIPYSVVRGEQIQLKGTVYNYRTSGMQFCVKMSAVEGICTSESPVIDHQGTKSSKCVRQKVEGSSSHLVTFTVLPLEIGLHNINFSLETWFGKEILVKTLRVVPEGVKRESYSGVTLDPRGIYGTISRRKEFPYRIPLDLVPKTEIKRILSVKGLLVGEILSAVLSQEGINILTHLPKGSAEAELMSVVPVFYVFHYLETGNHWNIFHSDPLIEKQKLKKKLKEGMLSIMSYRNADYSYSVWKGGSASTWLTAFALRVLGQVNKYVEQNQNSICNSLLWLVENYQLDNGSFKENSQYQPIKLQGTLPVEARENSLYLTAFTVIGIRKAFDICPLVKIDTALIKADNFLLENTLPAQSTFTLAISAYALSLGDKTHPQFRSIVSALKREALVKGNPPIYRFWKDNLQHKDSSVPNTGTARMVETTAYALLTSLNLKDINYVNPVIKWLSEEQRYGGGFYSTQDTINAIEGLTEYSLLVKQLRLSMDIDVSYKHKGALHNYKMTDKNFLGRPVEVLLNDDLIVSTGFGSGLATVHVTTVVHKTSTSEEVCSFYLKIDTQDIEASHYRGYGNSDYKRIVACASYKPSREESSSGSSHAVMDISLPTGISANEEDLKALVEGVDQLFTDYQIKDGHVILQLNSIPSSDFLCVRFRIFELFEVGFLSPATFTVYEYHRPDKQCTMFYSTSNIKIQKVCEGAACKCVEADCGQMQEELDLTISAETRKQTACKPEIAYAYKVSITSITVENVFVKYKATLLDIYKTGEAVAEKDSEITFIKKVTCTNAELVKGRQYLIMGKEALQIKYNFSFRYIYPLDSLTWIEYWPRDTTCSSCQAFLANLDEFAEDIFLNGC
T2 sequence (P08650 19-1681): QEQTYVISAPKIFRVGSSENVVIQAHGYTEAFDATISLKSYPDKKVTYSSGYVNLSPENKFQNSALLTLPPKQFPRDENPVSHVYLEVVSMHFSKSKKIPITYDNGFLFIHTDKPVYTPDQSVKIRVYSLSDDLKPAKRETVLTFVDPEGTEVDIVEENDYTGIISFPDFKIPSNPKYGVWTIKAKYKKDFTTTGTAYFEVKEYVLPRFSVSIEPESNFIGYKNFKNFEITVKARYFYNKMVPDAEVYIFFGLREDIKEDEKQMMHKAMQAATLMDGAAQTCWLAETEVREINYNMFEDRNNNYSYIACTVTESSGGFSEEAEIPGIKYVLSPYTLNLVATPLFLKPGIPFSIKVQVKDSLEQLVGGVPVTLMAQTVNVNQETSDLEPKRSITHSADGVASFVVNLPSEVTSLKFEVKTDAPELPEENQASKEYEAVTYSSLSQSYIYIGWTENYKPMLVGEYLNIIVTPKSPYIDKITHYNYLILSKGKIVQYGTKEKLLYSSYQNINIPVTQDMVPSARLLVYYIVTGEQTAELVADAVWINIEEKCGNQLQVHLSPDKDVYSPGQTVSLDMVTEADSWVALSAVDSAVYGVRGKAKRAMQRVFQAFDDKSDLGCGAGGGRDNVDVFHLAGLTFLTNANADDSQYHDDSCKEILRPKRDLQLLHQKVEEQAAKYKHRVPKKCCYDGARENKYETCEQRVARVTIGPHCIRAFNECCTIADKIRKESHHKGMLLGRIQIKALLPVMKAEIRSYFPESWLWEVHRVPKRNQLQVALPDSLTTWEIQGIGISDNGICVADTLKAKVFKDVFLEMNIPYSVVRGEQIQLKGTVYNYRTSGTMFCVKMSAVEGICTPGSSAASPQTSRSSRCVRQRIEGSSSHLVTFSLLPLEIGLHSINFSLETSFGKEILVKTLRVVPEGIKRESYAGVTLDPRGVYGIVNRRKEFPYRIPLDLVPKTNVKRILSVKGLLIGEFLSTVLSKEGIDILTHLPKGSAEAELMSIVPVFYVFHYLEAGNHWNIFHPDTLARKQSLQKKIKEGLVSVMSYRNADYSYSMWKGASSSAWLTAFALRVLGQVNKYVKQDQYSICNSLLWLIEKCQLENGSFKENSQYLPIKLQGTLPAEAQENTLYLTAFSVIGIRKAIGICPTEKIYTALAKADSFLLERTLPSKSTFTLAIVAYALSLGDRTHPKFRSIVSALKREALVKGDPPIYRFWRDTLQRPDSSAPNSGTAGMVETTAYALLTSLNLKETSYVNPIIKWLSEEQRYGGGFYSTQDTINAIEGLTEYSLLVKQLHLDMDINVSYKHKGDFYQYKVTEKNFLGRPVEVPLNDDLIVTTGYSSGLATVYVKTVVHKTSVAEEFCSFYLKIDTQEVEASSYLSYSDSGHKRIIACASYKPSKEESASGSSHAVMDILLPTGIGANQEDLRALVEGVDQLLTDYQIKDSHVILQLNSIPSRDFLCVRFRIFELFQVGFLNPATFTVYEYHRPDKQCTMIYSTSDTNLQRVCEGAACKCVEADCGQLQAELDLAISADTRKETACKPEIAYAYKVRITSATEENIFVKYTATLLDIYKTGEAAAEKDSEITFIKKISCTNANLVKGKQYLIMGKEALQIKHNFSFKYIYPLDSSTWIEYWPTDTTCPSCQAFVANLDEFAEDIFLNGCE

Regarding `CCC[C@H](NC(=O)[C@@H]1CSCc2ccc(cc2)CSC[C@H](NC(=O)[C@H](CCC)NC(C)=O)C(=O)N[C@@H](c2ccccc2)C(=O)N[C@@H]([C@@H](C)O)C(=O)N[C@@H](Cc2c[nH]c3ncccc23)C(=O)N[C@@H](CCC(=O)O)C(=O)N[C@@H](Cc2ccc(O)cc2)C(=O)N(C)[C@@H](CO)C(=O)N[C@@H](Cc2c[nH]cn2)C(=O)N1)C(N)=O` [Compound R3050, [pXylyl(2,10)]Ac-Nvl-C-Phg-T-azaTrp-E-Y-(N-Me)S-H-C-Nvl-NH2] (Ac-[Nva]C[Phg]T[Trp(7-aza)]EY[NMeS]HC[Nva]-NH2; linker 2-10 via pXylylene), in data set [1] (37° C., up to 24 hrs), the “stability in human plasma (in words)” value is “highly stable”. Moreover, the half-life at 10 μM in data set [1] (pH 7.4, 37° C., 10 μM) was above 1440 min. The “Percent remaining at time (hrs): 0 hrs” value in data set [1] (pH 7.4, 37° C., 10 μM, 0 hrs) was found to be 100%. Moreover, the fraction remaining at 2 h, 10 μM in data set [1] (plasma (collected in sodium heparin), pH 7.4, 37° C., 10 μM, 2 hrs, read-out: Percent remaining at time (hrs): 2 hrs) is 109%. Moreover, the fraction remaining at 4 h, 10 μM in data set [1] (plasma (collected in sodium heparin), pH 7.4, 37° C., 10 μM, 4 hrs, read-out: Percent remaining at time (hrs): 4 hrs) came out at 100%. The share remaining at 12 h, 10 μM in data set [1] (plasma (collected in sodium heparin), pH 7.4, 37° C., 10 μM, 12 hrs, read-out: Percent remaining at time (hrs): 12 hrs) amounted to 88%. The amount remaining at 24 h, 10 μM in data set [1] (plasma (collected in sodium heparin), pH 7.4, 37° C., 10 μM, 24 hrs, read-out: Percent remaining at time (hrs): 24 hrs) was 98.1%. Besides, the 50% inhibitory concentration (IC50) at C5 [2] (average of Exp 1 and Exp 2, read-out: Avg, nM IC50) amounted to 280 nM; at C5 [2] (competition with probe R3076 25 nM, C5 50 nM, 60 min at 25° C., experiment 1, read-out: IC50 nM, Exp 1), 267 nM; on C5 [2] (competition with probe R3076 25 nM, C5 50 nM, 60 min at 25° C., experiment 2, read-out: IC50 nM, Exp 2) it was 293 nM; on C5 [3], 42.9 nM. Also, the inhibition constant Ki on C5 [2] (average of Exp 1 and Exp 2, read-out: Avg, nM Ki) turned out to be 64.3 nM; on C5 [2] (competition with probe R3076 25 nM, C5 50 nM, 60 min at 25° C., experiment 1, read-out: Ki nM, Exp 1), 71.1 nM; on C5 [2] (competition with probe R3076 25 nM, C5 50 nM, 60 min at 25° C., experiment 2, read-out: Ki nM, Exp 2), 57.6 nM. For the same compound, the “competition with labeled probe / affinity for C5 (in words)” value on C5 [2] (probe R3076 25 nM, C5 50 nM) was “relatively strong affinity”.
For the compound `CCC[C@H](NC(C)=O)C(=O)N[C@@H](CCC)C(=O)N[C@@H](Cc1ccc(O)cc1)C(=O)N[C@@H](CCC(=O)O)C(=O)N[C@@H](CC(N)=O)C(=O)N[C@H](C(=O)N[C@@H](Cc1ccc(O)cc1)C(=O)N[C@@H](Cc1c[nH]c2ncccc12)C(=O)N[C@@H](CCC(=O)O)C(=O)N[C@@H](Cc1ccc(O)cc1)C(=O)N1CCC[C@H]1C(=O)N[C@H](C(=O)N[C@@H](CCC)C(=O)N[C@@H](CCCCNC(=O)CCCCCNC(=O)CCC1=C(C)C2=Cc3ccc(-c4ccc(OC)cc4)n3[B-](F)(F)[N+]2=C1C)C(N)=O)C1CCCCC1)C(C)(C)C` [Compound R3076, Ac-Nvl-Nvl-Y-E-N-Tbg-Y-azaTrp-E-Y-P-Chg-Nvl-K-(BODIPY-TMR-X) NH2], on C5 [4], the equilibrium dissociation constant (Kd) turned out to be 8.07 nM. Besides, the IC50 on C5 [3] came out at 297 nM.
For the compound `CC(=O)N[C@H]1CCCCNC(=O)C[C@@H](C(=O)N(C)[C@@H](CC(=O)O)C(=O)N[C@H](C(=O)N[C@@H](Cc2ccc(O)cc2)C(=O)N[C@@H](Cc2c[nH]c3ncccc23)C(=O)N[C@@H](CCC(=O)O)C(=O)N[C@@H](Cc2ccc(O)cc2)C(=O)N2CCC[C@H]2C(=O)N[C@H](C(=O)N[C@@H](CCCCN)C(N)=O)C2CCCCC2)C(C)(C)C)NC(=O)[C@H](Cc2ccccc2)NC(=O)[C@H](CCCNC(=N)N)NC(=O)[C@H](CCC(=O)O)NC(=O)[C@H](C(C)C)NC1=O` [Compound R3192, [cyclo(1,6)]Ac-K-V-E-R-F-D-(N-Me)D-Tbg-Y-azaTrp-E-Y-P-Chg-K-NH2], at C5 [5], the IC50 came to 1.5 nM.
Still for that read-out and setting: the figure for `CCCCCCCCCCCCCCCC(=O)NCCCC[C@H](NC(=O)[C@@H](NC(=O)[C@@H]1CCCN1C(=O)[C@H](Cc1ccc(O)cc1)NC(=O)[C@H](CCC(=O)O)NC(=O)[C@H](Cc1c[nH]c2ncccc12)NC(=O)[C@H](Cc1ccc(O)cc1)NC(=O)[C@@H](NC(=O)[C@H](CC(=O)O)N(C)C(=O)[C@@H]1CC(=O)NCCCC[C@H](NC(C)=O)C(=O)N[C@@H](C(C)C)C(=O)N[C@@H](CCC(=O)O)C(=O)N[C@@H](CCCNC(=N)N)C(=O)N[C@@H](Cc2ccccc2)C(=O)N1)C(C)(C)C)C1CCCCC1)C(N)=O` [Compound R3194, [cyclo(1,6)]Ac-K-V-E-R-F-D-(N-Me)D-Tbg-Y-azaTrp-E-Y-P-Chg-(Lys-C16)-NH2] is 15.5 nM.
Take `CCC[C@H](NC(=O)[C@@H]1CCCN1C(=O)[C@H](CCC)NC(=O)[C@@H]1CSCc2cccc(c2)CSC[C@H](NC(=O)[C@H](CCC)NC(C)=O)C(=O)N[C@@H](c2ccccc2)C(=O)N[C@@H]([C@@H](C)O)C(=O)N[C@@H](Cc2c[nH]c3ncccc23)C(=O)N[C@@H](CCC(=O)O)C(=O)N[C@@H](Cc2ccc(O)cc2)C(=O)N(C)[C@@H](CO)C(=O)N[C@@H](Cc2c[nH]cn2)C(=O)N1)C(N)=O` [Compound R3008, [mXylyl(2,10)]Ac-Nvl-C-Phg-T-azaTrp-E-Y-(N-Me)S-H-C-Nvl-P-Nvl-NH2] (Ac-[Nva]C[Phg]T[Trp(7-aza)]EY[NMeS]HC[Nva]P[Nva]-NH2; linker 2-10 via mXylylene): the half-maximal inhibitory concentration (IC50) is 97 nM at C5 [3], 33 nM in data set [6] and 54.5 nM with C5a.
As to `CCC[C@H](NC(=O)[C@@H](NC(=O)[C@@H]1CCCN1C(=O)[C@H](Cc1ccc(O)cc1)NC(=O)[C@H](CCC(=O)O)NC(=O)[C@H](Cc1c[nH]c2ncccc12)NC(=O)[C@H](Cc1ccc(O)cc1)NC(=O)[C@@H](NC(=O)[C@H](CC(=O)O)NC(=O)[C@@H]1CSCc2cccc(c2)CSC[C@H](NC(C)=O)C(=O)N[C@@H](C(C)C)C(=O)N[C@@H](CCC(=O)O)C(=O)N[C@@H](CCCNC(=N)N)C(=O)N[C@@H](Cc2ccccc2)C(=O)N1)C(C)(C)C)C1CCCCC1)C(=O)O` [Compound R3201, [mXylyl(1,6)]Ac-C-V-E-R-F-C-D-Tbg-Y-azaTrp-E-Y-P-Chg-Nvl], at rat C5, the “inhibitory activity in ex vivo hemolysis assays (in words)” value was “very little inhibitory activity”. In addition, the “binding to rat C5 (in words)” value at rat C5 (in vivo) is “do not bind”.
In the case of `CCCCCCCCCCCCCCCC(=O)NCCCC[C@H](NC(=O)[C@@H](NC(=O)[C@@H]1CCCN1C(=O)[C@H](Cc1ccc(O)cc1)NC(=O)[C@H](CCC(=O)O)NC(=O)[C@H](Cc1c[nH]c2ncccc12)NC(=O)[C@H](Cc1ccc(O)cc1)NC(=O)[C@@H](NC(=O)[C@H](CC(=O)O)N(C)C(=O)[C@@H]1CSSCCC(=O)N[C@@H](C(C)C)C(=O)N[C@@H](CCC(=O)O)C(=O)N[C@@H](CCCNC(=N)N)C(=O)N[C@@H](Cc2ccccc2)C(=O)N1)C(C)(C)C)C1CCCCC1)C(=O)O` [Compound R3198, [cyclo(1,6)](desamino)C-V-E-R-F-C-(N-Me)D-Tbg-Y-azaTrp-E-Y-P-Chg-(Lys-C16)], on C5 [5], the IC50 was 142 nM.

The values above are taken from US10208089B2, “Modulation of complement activity” (priority 2014, dated 2019).
